Measured values published in US11266715B2, “C3A receptor agonists for use against ischemic brain injury, stroke, traumatic brain injury, spinal cord injury and neurodegenerative disorders” (priority 2016, dated 2022).

Assays:
GFAP = GFAP immunoreactivity in dorsal hippocampus after neonatal HI; type: in vivo, mouse; conditions: P55, 3 days treatment after HI
Experimental: On P51 (long-term study) or P55 (short-term study), mice were deeply anesthetized with thiopental [Pentothal Sodium (0.01 ml/g body weight), Hospira, Ill., USA)] and transcardially perfused with 0.9% saline, followed by 4% paraformaldehyde (PFA) in 0.1 M PBS. Brains were removed and post-fixed in 4% PFA at 4° C. for 24 h followed by 70% ethanol for 24 h. Tissue was processed using an automatic tissue processor (SAKURA Tissue Tek VIP 3000, Tournai, Belgium) and embedded in paraffin. Brains were cut at room temperature into 8-μm serial coronal sections using a sliding microtome (Microm HM 450, Thermo Scientific, Massachusetts, USA), attached to silane coated slides and dried at RT. […]
NeuN positive cells, GFAP positive relative area, as well as GAP-43, SYN, and VGLUT1 positive puncta were counted by using MetaMorph software (ver. 7.8.6, Molecular Devices, CA, USA) on confocal images obtained with a 20× (NeuN and GFAP) or 63× (GAP-43, SYN, and VGLUT1) objective (Carl Zeiss LSM 700 Laser Scanning Microscope, Jena, Germany). Iba-1 positive cell somata were counted on bright field images obtained with a 20× objective (Nikon Eclipse 80i). […]

[1] = tested on: adult mice with global cerebral ischemia; conditions: single intraventricular injection of C3a 30 min prior to training, assessed 24 h later; cited from earlier work

Substance: C3a: Purified human C3a peptide (Complement Technologies), C3a receptor agonist, amino acid sequence SEQ ID NO: 1
- GFAP relative area in CA1 and DG (GFAP): did not differ between the hemispheres or in comparison with sham mice
- amnesia induced by global cerebral ischemia [1]: ameliorate amnesia
